Data from patent publication US20190153538A1, “GENE EXPRESSION BIOMARKERS FOR PERSONALIZED CANCER CARE TO EPIGENETIC MODIFYING AGENTS” (Oryzon Genomics, S.A., priority 2015, published 2019).
Counter-ions that a name gives are not always drawn.

How the values were obtained:
[1] = tested on: H510A xenograft; test: In vivo tumor growth inhibition, NCI-H510A xenograft model; set-up: species or system athymic nude mice; conditions: 40 μg per kg five days on/two days off, after 21 days of dosing, compared to untreated controls
Method: 7-8-week old athymic nude mice animals were injected with 5×10^6 H510A cells resuspended in 100 μL of 1:1 mixture of Matrigel® matrix (Corning Inc., Tewksbury/MA, C. S. Hughes et al., Proteomics (2010) 10(9):1886-90) and PBS. Tumors were staged at 200-300 mm^3 animals and distributed into dosing groups. (trans)-N1-((1R,2S)-2-phenylcyclopropyl)cyclohexane-1,4-diamine was administered at a dose of 40 μg per kg (upk) five days on/two days off until end of study. Tumor volume was measure biweekly using a digital caliber. The study was concluded when mean tumor volume within control group reached 2000 mm^3 or 28 days post-staging. Statistical analysis was performed using unpaired t-test.

[2] = tested on: 19 small cell lung cancer cell lines; test: Cell response to LSD1 inhibition: compound potency determination in SCLC cell line panel; assay type: cell-based; conditions: 4 days culture
Method: The compound potency determination was performed by culturing 19 small cell lung cancer cell lines […] for 4 days at 37 degrees C. at 5% CO2 in humidified incubators in the presence of serially diluted (trans)-N1-((1R,2S)-2-phenylcyclopropyl)cyclohexane-1,4-diamine bis-hydrochloride.
As a positive control for cytotoxicity the Hsp90 inhibitor 17-N-allylamino-17-demethoxygeldanamycin (17-AAG, a geldanamycin analogue) was used as positive control in serial dilution. Each of the cell lines was propagated and tested in distinct optimized media as recommended by ATCC or cell line source.
Small cell lung cancer cell lines can be categorized as “classic” or “variant”, based on their enzymatic activities, cellular morphologies, and growth phenotypes (Desmond et al., Cancer Res (1985) 45(6):2913-2923; Shoemaker R. H., Nature Reviews Cancer […] 6:813-823). Classic cells lines express elevated levels of L-dopa decarboxylase, bombesin-like immunoreactivity, neuron-specific enolase, and the brain isozyme of creatine kinase; variant cell lines continue to express neuron-specific enolase and the brain isozyme of creatine kinase, but have undetectable levels of L-dopa decarboxylase and bombesin-like immunoreactivity. Unlike classic cell lines, some variant cell lines are amplified for and have increased expression of the c-myc (MYC)oncogene.
Depending on their responses to (trans)-N1-((1R,2S)-2-phenylcyclopropyl)cyclohexane-1,4-diamine bis-hydrochloride, cell lines are classified as either “sensitive” [5], defined as having EC50<0.05 μM, or “resistant”, defined as having EC50>=0.05 μM [R].

Compound	tumor growth inhibition [1]	Cell-based response, classic versus variant SCLC cell lines ([2]; p-value 0.0055)	variant cell lines [V] that are resistant ([2]; resistant = EC50>=0.05 μM)	classic cell lines [C] that are sensitive ([2]; sensitive = EC50<0.05 μM)
N[C@H]1CC[C@H](N[C@@H]2C[C@H]2c2ccccc2)CC1 [(trans)-N1-((1R,2S)-2-phenylcyclopropyl)cyclohexane-1,4-diamine]	34%	–	–	–
N[C@H]1CC[C@H](N[C@@H]2C[C@H]2c2ccccc2)CC1 [(trans)-N1-((1R,2S)-2-phenylcyclopropyl)cyclohexane-1,4-diamine bis-hydrochloride]	–	greater in classic SCLC cell lines compared to variant SCLC cell lines	7 out of 8	9 out of 11
